Relation data for one molecule are collected here from ChEMBL document CHEMBL1127963, “Vasoactive eicosanoids: Synthesis of 12,20-dihydroxyeicosa-5(Z),8(Z),10(E),14(Z)-tetraenoic acid via a novel chiral bis-lactol” (1994).

The species entered for this assay is Canis familiaris. Briefly: Compound was tested relaxation of contracted coronary arteries of canine at 5 x 10-e M (p<0.01). Type of assay: functional, Canis lupus familiaris.

`O=C(O)CCC/C=C\C/C=C\C=C\C(O)C/C=C\CCCCCO` (stereo unspecified) registered a Relation of 48%.
